Laboratory results published in patent US20180153830A1, “SELECTIVE INHIBITORS OF UNDIFFERENTIATED CELLS” (Yissum Research Development Company of the Hebrew …, priority 2012, published 2018).
Where two headings read alike, the source gives them in different places.

Key:
Format in all cases: cell-based
[1] = tested on: CSES2 human embryonic stem cells; test: CellTiter-Glo luminescent cell viability screen, CSES2; conditions: for inhibition at 20 µM: pluripotent stem cells
Description: 5,000 CSES2 cells were plated in 50 μl per well of mTeSR1 medium into black 384-well clear-bottom plates (Falcon BD) pre-coated with Matrigel™ using WellMate cell dispenser (Matrix, Hudson, N.H.). 24 hours after plating, medium was replaced with 25 μl of fresh medium and 25 μl of 40 μM compound medium solutions in 1% DMSO from the intermediate compound dilution plates. The plates were incubated at 37° C., in a 5% CO2 atmosphere, for the entire duration of the screen, apart from the time required for liquid handling. […] 50 μl of CellTiter-Glo® reagent was added to each well of the assay plates and fully mixed. After incubation at room temperature for 15 minutes, 25 μl of liquid was transferred from each well into a white opaque-bottom 384-well plate (PerkinElmer), and luminescence was measured using an EnVision® plate reader (PerkinElmer). 16 neutral control wells (0.5% DMSO) and 8 positive control wells (5 μM amsacrine hydrochloride were used to normalize the compound effect. All liquid transfer steps were handled with a Biomek® FXP Laboratory Automation Workstation (Beckman Coulter, Fullerton, Calif.) and Muitidrop Combi liquid dispenser (Thermo Fisher, Waltham, Mass.). An Assay Analyzer (Genedata, Basel, Switzerland) was used for data pattern correction and calculation. The Spotfire software (Spotfire, Somerville, Mass.) was used for data illustration.
(§1) The compounds identified as hits from the primary screen were retested at a concentration of 20 μM against three pluripotent stem cell lines (CSES2, H9 and CSES2-SO2/3) for confirmation screens.
(§2) 696 confirmed hits from the confirmation screen were tested for profiling in a panel of 13 different cell types, using the same screening protocol described above (except in the case of embryonic stem cell-derived neural stem cells (NSCs) and mesenchymal stem cells (MSCs), for which the protocol is described below). As discussed below, compounds were tested either in dose-dependent multiple concentration manner or in single concentration manner. CSES2 and CSES2-SO2/3 cell lines and the early endodermal progenitors derived from this cell line (CSES2-SO2/3-differentiated) were screened at 8 concentrations ranging from 50 μM to 23 nM with 1:3 serial dilution steps. BJ-iPS28 cell line and the BJ fibroblasts from which it was derived were screened at 6 concentrations ranging from 50 μM to 200 nM with 1:3 serial dilution steps. Cardiomyocytes were screened in one concentration of 20 μM. HeLa and NTERA-2 cell lines were screened in duplicates of 20 μM. Kelly and Huh-7 were screened in triplicates of 20 μM. Hepatocytes were screened in duplicates of 20 μM in the original 96-well plates in which the cells arrived (40,000 cells per well, in 160 μl medium, the volumes of all reagents involved were adjusted accordingly). MSCs and NSCs were screened in duplicates of 12.5 μM.
(§3) The raw intensity data for each well were background-corrected by subtraction of the median intensities across all positive control wells on the same plate, and used to calculate the inhibitory effect of each compound per cell line. A Genedata Assay Analyzer and Condoseo were used for data pattern correction, calculation and IC50 curve fitting. A Z′ factor was determined for each plate.

[2] = tested on: CSES2-SO2/3 embryonic stem cells; test: CellTiter-Glo luminescent cell viability screen, CSES2-SO2/3; conditions: Homo sapiens; for EC50: 24 h; for inhibition at 20 µM: pluripotent stem cells
Description: 5,000 CSES2 cells were plated in 50 μl per well of mTeSR1 medium into black 384-well clear-bottom plates (Falcon BD) pre-coated with Matrigel™ using WellMate cell dispenser (Matrix, Hudson, N.H.). 24 hours after plating, medium was replaced with 25 μl of fresh medium and 25 μl of 40 μM compound medium solutions in 1% DMSO from the intermediate compound dilution plates. The plates were incubated at 37° C., in a 5% CO2 atmosphere, for the entire duration of the screen, apart from the time required for liquid handling. Cell viability was determined 24 hours after compound treatment using CellTiter-Glo® luminescent cell viability assay kits. 50 μl of CellTiter-Glo® reagent was added to each well of the assay plates and fully mixed. After incubation at room temperature for 15 minutes, 25 μl of liquid was transferred from each well into a white opaque-bottom 384-well plate (PerkinElmer), and luminescence was measured using an EnVision® plate reader (PerkinElmer). 16 neutral control wells (0.5% DMSO) and 8 positive control wells (5 μM amsacrine hydrochloride were used to normalize the compound effect. All liquid transfer steps were handled with a Biomek® FXP Laboratory Automation Workstation (Beckman Coulter, Fullerton, Calif.) and Muitidrop Combi liquid dispenser (Thermo Fisher, Waltham, Mass.). An Assay Analyzer (Genedata, Basel, Switzerland) was used for data pattern correction and calculation. The Spotfire software (Spotfire, Somerville, Mass.) was used for data illustration.
as §1, §2, §3

[3] = tested on: ES-derived neural stem cells; test: CellTiter-Glo counter-screen, neural stem cells; conditions: Homo sapiens, Neural stem cell
[4] = tested on: ES-derived mesenchymal stem cells; test: CellTiter-Glo counter-screen, mesenchymal stem cells; conditions: Homo sapiens, at 20 μM (table title)
[5] = 24 h, read-out: EC50 CSES2 24 hours
[6] = 48 h, read-out: EC50 CSES2 48 hours

| SMILES | EC50 [1, 5] [nM] | EC50 [1, 6] [nM] | inhibition at 20 µM [1] [%] | EC50 [2] [nM] | inhibition at 20 µM [2] [%] | inhibition at 12.5 µM [3] [%] | inhibition at 12.5 µM [4] [%] |
| --- | --- | --- | --- | --- | --- | --- | --- |
| O=C(NNc1ccccc1)c1ccncc1 [PluriSIn #1, isonicotinic acid N′-phenylhydrazide] | 1540 | 1990 | 92.1 | 3910 | 90.8 | 18.2 | -4.9 |
| O=C(Nc1ccccc1)n1cc(F)c(=O)[nH]c1=O [PluriSIn #2] | 2030 | 2630 | 84 | 12400 | 54.3 | 53.6 | -1.4 |
| Nc1cc(N)cc(COc2ccc(-c3ccccc3)cc2)c1 [PluriSIn #3] | 2980 | 1320 | 98 | 2790 | 97.4 | 90.4 | 3.3 |
| O=C(NCCc1ccc(O)cc1)c1ccc(N2CCCCC2)cc1 [PluriSIn #4] | 1110 | 594 | 84.7 | 4700 | 74.5 | 15.5 | -8.1 |
| O=S(=O)(NNc1ccccc1)c1ccc2ccccc2c1 [PluriSIn #5] | 3060 | 1270 | 88.2 | 3200 | 92.3 | 60.9 | 6.4 |
| Cc1ccc(NNC(=O)C(O)(c2ccccc2)c2cccs2)cc1 (stereo not drawn) [PluriSIn #6, 2-hydroxy-2-(thiophen-2-yl)-2-phenylacetic acid 4-methyl-N′-phenylhydrazide] | 2550 | 1920 | 94.8 | 3750 | 93.2 | 16.5 | -19.7 |
| CC(=O)Oc1ccc(/C=C/c2ccc3c(c2)CCN3C)cc1 [PluriSIn #7] | 1980 | 749 | 104 | 2740 | 95.4 | 92.8 | 35.8 |
| Cc1oc2ccccc2c1/C=N/Nc1ccccc1 [PluriSIn #8] | 2300 | 2390 | 98.6 | 3690 | 92.7 | 15 | -33.8 |
| C/C(=N\O)NNc1ccc(Cl)cc1 [PluriSIn #9] | 7960 | 2160 | 102 | 4610 | 89.2 | 28.9 | -12.6 |
| CCCCCC(=O)NNc1ccc(Cl)cc1 [PluriSIn #10] | 1670 | 2050 | 95 | 2490 | 95.2 | 23.7 | 3.9 |
| CCOC(=O)CN1CC(=O)/C(=C\NNc2ccccc2)C1=O [PluriSIn #11] | 3830 | 2580 | 98.8 | 3620 | 92.5 | 17.2 | 6 |
| CCN(CC)C(=O)C(=O)c1c(-c2ccccc2)[nH]c2c1sc1ccccc12 [PluriSIn #12] | 6850 | 5100 | 93 | 6040 | 92.9 | 9.9 | -7.3 |
| O=C1C=CC=C1/C=C/C(=N\Nc1ccccc1)c1ccccc1 [PluriSIn #13] | 1540 | 1910 | 101 | 3450 | 94.6 | 29.7 | -7.3 |
| O=C(NN(C(=O)c1ccccc1)c1ccccc1)c1ccc(Cl)cc1 [PluriSIn #14] | 2030 | 2900 | 90.1 | 5520 | 90.1 | 18.4 | -1.5 |
| C(=N\C1CCC(CC2CCCCC2)CC1)/OC1CCOC1 (stereo not drawn) [PluriSIn #15] | 2980 | 3270 | 77.6 | 10000 | 72.2 | 70.3 | 12 |
